According to patent US20230414657A1, “Novel compositions for neutralizing toxic effects of hydrogen peroxide in living cells or tissues” (Dzala LLC, priority 2020, published 2023):

Columns and labels:
[1] = test system: C. elegans; assay: NADPH and NADP+ quantification by LC-MS; format: in vivo
Experimental: To measure NADP^+ and NADPH from C. elegans, 10000-15000 L1 worms were exposed to each condition in duplicates for 3 days and then washed four times with H2O. […] 25 µM solutions of each nucleotide were treated in parallel as standards. Homogenization for 15 min at 4° C. and 300 g was carried out in a TissueLyser II (Qiagen) after adding ⅓ volume of 0.5 mm zirconium beads. The resulting mixture was centrifuged at 13,000 g and the supernatant transferred to a new tube.
LC-MS/MS analysis of the samples was performed on a high-performance liquid chromatography (HPLC) system (1200 Agilent) coupled online to G2-S QTOF (Waters). For normal phase chromatography Bridge Amide 3.5 ml (2.1×100 mm) column from Waters was used. The mobile phase composed of eluent A and eluent B (40% acetonitrile, 0.1 mM ammonium acetate and 0.01% NH40H) was applied with the following gradient program: Eluent B, from 0% to 100% within 18 min; 100% from 18 min to 21 min; 0% from 21 min to 26 min. The flow rate was set at 0.3 ml/min. The spray voltage was set at 3.0 kV and the source temperature was set at 120° C. Nitrogen was used as both cone gas (50 L/h) and desolvation gas (800 L/h), and argon as the collision gas. MS^E mode was used with Bridge Amide 3.5 µl (2.1×100 mm) column in ESI negative ionization polarity for the detection of the nucleosides. Mass chromatograms and mass spectral data were acquired and processed by MassLynx software (Waters). Three and four biological replicates were analyzed for each condition of mel-32 RNAi and EV, respectively.

[2] = test system: C. elegans; assay: Quantification of glutathione (GSH/GSSG-Glo); format: in vivo
Experimental: Sample preparation was performed as described previously with some modifications^6. From each condition 10,000 synchronized animals were harvested and washed 3 times with sterile water. […] To thoroughly lyse the worms, 5 cycles of freezing and thawing were performed in a water bath at 37° C., followed by a 1-min sonication. The samples were then centrifuged and the supernatant tested for protein estimation and GSH quantification. Total GSH, GSSG, and GSH/GSSG ratios were quantified using the GSH/GSSG-Glo assay kit (Promega) following the instructions of the manufacturer. Briefly, each sample was tested in triplicate in 96-well culture plates with total glutathione or GSSG lysis reagent, for total glutathione or GSSG measurement, respectively. The GSH probe, luciferin-NT, was converted to luciferin, which is coupled to a firefly luciferase. The plates were then read in an […] plate reader (Perkin Elmer, United States). The GSSG value was subtracted from the total glutathione to calculate GSH levels and GSH/GSSG ratio. Four biological replicates were analyzed for each condition.

[3] = test system: gox-1, ghpr-1, gcst-1, mel-32 and gcs-1 genes; assay: Quantitative real-time PCR of glycolate pathway genes; format: in vivo, C. elegans
Experimental: The differential expression of F41E6.5 (gox-1), C31C9.2 (ghpr-1), gcst-1, mel-32 and gcs-1 genes was measured using qRT-PCR. ˜5000 L1 N2 worms were exposed to each condition for 3 days at 15° Cas described above and then washed three times with H2O. Total RNA was isolated using the RNeasy Mini Kit (Qiagen) and equal amounts of all samples were reverse transcribed with SuperScript Ill (Invitrogen) using oligo(dT) 12-18 primers. cDNA quality was tested using standard PCR. qRT-PCR was performed using pre-designed TaqMan Gene Expression Assay (ThermoFischer Scientific) with at least three samples in triplicates. For the relative quantification of gene expression levels, the 2^−ΔΔCT method and results were normalized to the expression level of the cdc-42 gene. Expression levels were averaged over technical and biological replicates, […]

[4] = test system: C. elegans
Experimental: A population of synchronized L1 larvae was added to 30-ml glass tubes containing 2.5 ml of S-complete medium (liquid culture)^2 and NA22 or induced RNAi bacteria at an OD600 of 1.9. […] Worms were incubated at 15° C. and 150 rpm in a shaking incubator for 2-6 days, refreshing the medium every 2 days.
Briefly, for the treatment during larval development worms were incubated in liquid culture under different conditions from L1 until L4, and then transferred onto control NGM plates until death. During the reproductive period (days 1-8), worms were transferred to fresh plates every other day to separate them from their progeny. […] Worms that were missing, displaying internal egg hatching, losing vulva integrity, and burrowing into NGM agar were censored. Progeny number and embryonic lethality was determined the day after transferring the adult animals to fresh plates. Statistical analyses of lifespan were calculated by Log-rank (Mantel-Cox) tests on the Kaplan-Meier curves in GraphPad Prism. For progeny number and embryonic lethality, the significance of differences between conditions was determined using an unpaired t-test in GraphPadPrism 8.0. All experiments were performed in triplicate.

[5] = test system: C. elegans; assay: Growth rate / worm size; format: in vivo; conditions: H2O2 alone (100 mM)
Experimental: Synchronized L1 worms were incubated at 15° C. on plates or in liquid culture and exposed to different conditions as indicated. Single worms were selected randomly from the plates or aliquots were taken from the liquid cultures and added to NGM plates for immediate visualization. 25 worms per treatment were measured at 24-48 hr intervals and all growth curves were done four times.

[6] = 0.25% hydrogen peroxide alone in drinking water
[7] = test system: C. elegans; assay: Oxygen consumption rate (OCR), Seahorse XFe96; format: in vivo; conditions: H2O2 alone (100 mM)
Experimental: Oxygen consumption of worms was measured with a Seahorse XFe96 system (Seahorse Bioscience, North Billerica, MA), as previously described^4. L3 larvae of the different strains were grown on plates or in liquid culture and supplemented for 2-4 days as described for each experiment. After removing bacteria and debris, approximately 100 worms were pipetted into each well of a 96-well Seahorse XF^e assay plate and OCR was measured until it stabilized. Then, 3 subsequent measurements were made at 6.5-min intervals. Finally, the exact number of worms in each well was counted and used for normalization. A small number of abnormal readings were also filtered out at this stage. On average, 7-8 wells (technical replicates) were used for each condition. Normalized OCR values were averaged for the last 3 measurements for each strain and condition. Four biological replicates were analyzed for each condition.

[8] = test system: Staphylococcus aureus bacterial culture (ATCC 25923); assay: Antimicrobial effect on bacterial culture, colony count; format: cell-based; conditions: 2.5% solution
Experimental: A composition comprising 0.5% Glycine and 0.3% Hydrogen peroxide was prepared on 0.9% sodium chloride solution. Water was sterile purified.
After incubation for 4-5 minutes, sample from each test tube was diluted 1000 times with sterile water, and […] was spread evenly on standard tryptic soy agar petri plate. Plates were incubated at 37° C. for 24 hours and bacterial colonies were counted. As a positive control (100% survival), was taken a sample, where the composition was neutralized by sodium bisulfite instantly (FIG. 10).

SMILES | Ratio of NADPH to NADP+ ([1]; H2O2 alone (100 mM), 3 days) | Ratio of NADPH to NADP+ ([1]; mel-32 knocked down worms, H2O2 alone) | Oxidized form of glutathione (GSSG) ([2]; H2O2 alone (100 mM)) | Total glutathione ([2]; H2O2 alone (100 mM), 3 days) | GSH/GSSG ratio ([2]; H2O2 alone, control 107.5) | Reduction of GSH/GSSG ratio ([2]; peroxide alone vs control) | Expression of gcst-1 ([3]; peroxide or glycolate supplementation) | Expression of gox-1, ghpr-1, mel-32 and gcs-1 ([3]; worms exposed to different peroxide concentrations, 3 days) | Reproductive capacity ([4]; H2O2 alone) | Lifespan ([4]; exposed to H2O2 alone during larval stages, then control plates, control worms 18.5+/−1.19 days) | Growth [5] | Effect on weight [6] | Respiration rate (OCR) [7] | Antimicrobial effect of the neutralizer on itself [8]
OO [H2O2, hydrogen peroxide] | significantly decreased | further decline | 513 % of the control | 51 % of the control | 11.3 | 10 -fold | not significantly altered | significant induction | reduced reproductive capacity | 5.88 ± 1.47 days | growth delay | slight positive effect | decline in the respiration rate | –
O=S([O-])O.[Na+] [sodium bisulfite] | – | – | – | – | – | – | – | – | – | – | – | – | – | no antimicrobial effect
